Results: patent US10023593B2, “ALK kinase inhibitor, and preparation method and uses thereof” (BEIJING PEARL BIOTECHNOLOGY LIMITED LIABILITY COMPANY, priority 2014, dated 2018)

Key:
NCI-H2228 cell line = assay: CellTiter-Glo cell proliferation inhibition on NCI-H2228 cell line; type: cell-based; conditions: Homo sapiens, NCI-H2228 cells, 5000 cells/well, 4 days drug treatment
Procedure, shortened: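 NCI-H2228 cells, 5000/well in RPMI-1640 + 10% FBS, treated with compounds 2 h after seeding (0.5% DMSO final) for 4 days at 37° C. Viability by CellTiter-Glo luminescence; inhibition relative to DMSO control, IC50 from curve fit.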

Wild Type ALK kinase = target: T1, Wild Type ALK kinase (Homo sapiens, UniProt Q9UM73); assay: HTRF KinEASE-TK assay, inhibitory activity on wild type ALK kinase; type: biochemical; conditions: wild type ALK 1 ng/μl, substrate 1 μM, 30° C. 35 minutes, read-out: Inhibition on ALK kinases (wildtype), IC50
T1 construct: purchased Sino-US Crown Bioscience, Inc. batch number ALK 20110607
Description: 1. Inhibitory Activities of the Compounds of the Present Invention on Wild Type ALK Kinases
? experimental method ? HTRF KinEASE™-TK Assay kit from Cisbio company was used to detect inhibitory activities of the compounds on wildtype ALK kinases (wild type ALK kinases).
? instrument ? Envision 2104 plate reader from PerKinElmer company.
? experiment material ? HTRF KinEASE™-TK Assay Kit (Cisbio company, catalog No. 62TK0PEC); Wild Type ALK kinase (produced by Sino-US Crown Bioscience, Inc., batch number ALK 20110607); DTT (Gibco BRL company, catalog No. 15508-012); MgCl2 (Sigma Aldrich company, catalog No. M-2670); ATP (Sigma Aldrich company, catalog No. A-7699); DMSO (AMRESCO company, catalog No. 0231); EDTA (AMRESCO company, catalog No. 0105); 96 wells plates (for diluting compounds) (CITOTEST company, catalog No. Ref36020096D); OptiPlate™-384 (White), PerkinElmer company, catalog No. P12-004)
? experimental condition ? Compounds (the final concentration of DMSO was 1%), the reaction substrate (the final concentration was 1 μM), ATP (the final concentration was […]), and Wildtype ALK kinases (the final concentration was 1 ng/μl) were mixed respectively in a final volume of 10 μl reaction system (containing 5 mM MgCl2, 1× Kinase buffer, and 1 mM DTT). The mixture was reacted at 30° C. for 35 minutes after shaking for 30 seconds. After completion of the reaction, each well was added with 5 μl Sa-XL665 and 5 μl TK Antibody-Eu(K), and placed in the dark for 60 minutes to end the reaction after uniform mixing. The data was read from PerkinElmer EnVision plate reader ([…]), the 665/615 ratio was calculated, and the data was analyzed.
? tested samples ? Compounds from the examples.
? data analysis ? Minimum 665/615 ratio (Rmin, 665/615 ratio under the condition that 10.4 μM positive control drug LDK-378 was added)
Maximum 665/615 ratio (Rmax, 665/615 ratio under the condition that no compound was added)
Tested 665/615 ratio (Rcompound, 665/615 ratio under the condition that a given concentration of compound was added) Inhibition rate (%)=[1−(Rcompound−Rmin)/(Rmax−Rmin)]×100
? data processing ? IC50 of compounds was calculated by using XLfit program in Excel.

T1 sequence (Q9UM73 19-1620): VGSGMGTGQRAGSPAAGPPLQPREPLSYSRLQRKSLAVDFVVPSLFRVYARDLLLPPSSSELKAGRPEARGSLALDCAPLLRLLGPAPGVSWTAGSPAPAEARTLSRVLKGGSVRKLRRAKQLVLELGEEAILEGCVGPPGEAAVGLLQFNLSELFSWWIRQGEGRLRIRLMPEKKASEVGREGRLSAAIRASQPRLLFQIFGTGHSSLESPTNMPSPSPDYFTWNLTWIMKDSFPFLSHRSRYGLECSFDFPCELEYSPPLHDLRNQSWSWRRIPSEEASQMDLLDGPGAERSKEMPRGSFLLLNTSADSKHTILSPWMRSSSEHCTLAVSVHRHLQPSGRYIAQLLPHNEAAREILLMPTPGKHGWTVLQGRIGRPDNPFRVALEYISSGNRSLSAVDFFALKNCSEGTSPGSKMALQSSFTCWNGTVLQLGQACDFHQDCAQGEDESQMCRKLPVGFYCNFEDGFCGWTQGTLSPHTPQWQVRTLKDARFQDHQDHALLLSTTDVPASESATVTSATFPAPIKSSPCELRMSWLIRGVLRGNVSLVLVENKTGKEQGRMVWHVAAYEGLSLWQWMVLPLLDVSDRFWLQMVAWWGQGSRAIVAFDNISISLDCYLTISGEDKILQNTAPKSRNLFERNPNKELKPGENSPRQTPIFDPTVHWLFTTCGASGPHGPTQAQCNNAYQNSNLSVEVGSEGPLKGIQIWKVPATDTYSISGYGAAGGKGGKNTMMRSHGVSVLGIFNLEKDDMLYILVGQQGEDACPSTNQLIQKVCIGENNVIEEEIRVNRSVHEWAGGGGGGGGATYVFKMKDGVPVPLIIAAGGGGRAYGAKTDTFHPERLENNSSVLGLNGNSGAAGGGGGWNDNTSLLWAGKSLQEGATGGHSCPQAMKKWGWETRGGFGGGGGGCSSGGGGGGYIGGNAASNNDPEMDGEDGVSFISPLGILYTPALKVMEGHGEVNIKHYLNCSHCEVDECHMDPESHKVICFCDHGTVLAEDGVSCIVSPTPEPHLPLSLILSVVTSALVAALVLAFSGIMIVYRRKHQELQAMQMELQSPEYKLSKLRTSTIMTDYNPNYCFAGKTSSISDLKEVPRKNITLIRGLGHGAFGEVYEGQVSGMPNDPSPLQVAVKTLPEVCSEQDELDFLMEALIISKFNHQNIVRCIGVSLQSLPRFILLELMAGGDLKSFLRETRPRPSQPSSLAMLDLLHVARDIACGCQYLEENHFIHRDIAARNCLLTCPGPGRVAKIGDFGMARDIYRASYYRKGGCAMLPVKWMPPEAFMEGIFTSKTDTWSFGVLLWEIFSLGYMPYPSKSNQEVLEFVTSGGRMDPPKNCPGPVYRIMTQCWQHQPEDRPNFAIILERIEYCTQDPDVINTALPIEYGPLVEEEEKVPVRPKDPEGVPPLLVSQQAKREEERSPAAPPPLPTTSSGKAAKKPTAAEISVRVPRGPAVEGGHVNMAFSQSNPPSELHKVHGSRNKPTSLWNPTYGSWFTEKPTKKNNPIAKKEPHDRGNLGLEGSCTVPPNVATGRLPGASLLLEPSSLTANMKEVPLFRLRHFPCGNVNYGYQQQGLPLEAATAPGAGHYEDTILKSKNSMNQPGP

| Structure (SMILES) | IC50 (NCI-H2228 cell line; NCI-H2228, 96 h) [nM] | IC50 (Wild Type ALK kinase) [nM] | IC50 (NCI-H2228 cell line; 96 h) [nM] |
| --- | --- | --- | --- |
| CC(C)S(=O)(=O)c1nn(C)cc1Nc1nc(Nc2ccc(C3=CCNCC3)cc2OC2CC2)ncc1Cl [Final product 14] | 168 | 4 | – |
| Cc1cc(Nc2ncc(Cl)c(Nc3cn(C)nc3S(=O)(=O)CC(C)C)n2)c(OC2CC2)cc1C1CCN(C(C)C)CC1 [Final product 127] | 142 | 5 | – |
| Cc1cc(Nc2ncc(Cl)c(Nc3cn(C)nc3S(=O)(=O)C(C)C)n2)c(OC2CC2)cc1C1CCN(CCO)CC1 [Final product 133, 2-(4-(4-(5-chloro-4-(3-(isopropylsulfonyl)-1-methyl-1H-pyrazol-4-amino)pyrimidin-2-amino)-5-cyclopropoxy-2-methylphenyl)piperidin-1-yl) ethanol] | – | 2 | 41 |
| Cc1cc(Nc2ncc(Cl)c(Nc3cn(C)nc3S(=O)(=O)C(C)C)n2)c(OCC2CC2)cc1C1CCN(C)CC1 [Final product 39] | 226 | 15 | – |
| Cc1cc(Nc2ncc(Cl)c(Nc3cn(C)nc3S(=O)(=O)C(C)C)n2)c(OC(F)(F)F)cc1C1CCNCC1 [Final product 10] | 188 | 7 | – |
| Cc1cc(Nc2ncc(Cl)c(Nc3cn(C)nc3S(=O)(=O)CC(C)C)n2)c(OC(C)C)cc1C1CN(C)C1 [Final product 36] | 326 | 8 | – |
| Cc1cc(Nc2ncc(Cl)c(Nc3cn(C)nc3S(=O)(=O)C(C)C)n2)c(OC2CC2)cc1C1CCN(C2CC2)CC1 [Final product 157] | 142 | 7 | – |
| Cc1cc(Nc2ncc(Cl)c(Nc3cn(C)nc3S(=O)(=O)C(C)C)n2)c(OC(F)(F)F)cc1C1CCN(C)CC1 [Final product 31] | 374 | 6 | – |
| Cc1cc(Nc2ncc(Cl)c(Nc3cn(C)nc3S(=O)(=O)CC(C)C)n2)c(OC(C)C)cc1C1CCNCC1 [Final product 6] | 193 | 3 | – |
| Cc1cc(Nc2ncc(Cl)c(Nc3cn(C)nc3S(=O)(=O)C(C)C)n2)c(OC(C)C)cc1C1CCN(C)C1 (centres unmarked) [Final product 37] | 131 | 7 | – |
| CC(C)CS(=O)(=O)c1nn(C)cc1Nc1nc(Nc2ccc(C3CCNC3)cc2OC2CC2)ncc1Cl (centres unmarked) [Final product 18] | 157 | 2 | – |
| Cc1cc(Nc2ncc(Cl)c(Nc3cn(C4CC4)nc3S(=O)(=O)C(C)C)n2)c(OC2CC2)cc1C1CCNCC1 [Final product 27] | 168 | 3 | – |
| CC(C)CS(=O)(=O)c1nn(C)cc1Nc1nc(Nc2ccc(C3CCNCC3)cc2OC2CC2)ncc1Cl [Final product 17] | 278 | 11 | – |
| Cc1cc(Nc2ncc(Cl)c(Nc3cn(C)nc3S(=O)(=O)C(C)C)n2)c(C(F)(F)F)cc1C1CCN(C)CC1 [Final product 32] | 1080 | 22 | – |
| CC(C)CS(=O)(=O)c1nn(C)cc1Nc1nc(Nc2ccc(C3CCN(C)CC3)cc2OC2CC2)ncc1Cl [Final product 43] | 125 | 5 | – |
| CC(C)S(=O)(=O)c1nn(C)cc1Nc1nc(Nc2cc(F)c(C3CCNC3)cc2OC2CC2)ncc1Cl (centres unmarked) [Final product 20] | 384 | 9 | – |
| Cc1cc(Nc2ncc(Cl)c(Nc3cn(C)nc3S(=O)(=O)C(C)C)n2)c(OC2CC2)cc1C1CN(S(C)(=O)=O)C1 [Final product 170] | 381 | 40 | – |
| Cc1cc(Nc2ncc(Cl)c(Nc3cn(C)nc3S(=O)(=O)C(C)C)n2)c(OC2CC2)cc1C1CCNCC1 [Final product 24] | 122 | 2 | – |
| Cc1cc(Nc2ncc(Cl)c(Nc3cn(C)nc3S(=O)(=O)C(C)C)n2)c(OC2CC2)cc1C1CCNC1 (centres unmarked) [Final product 26] | 217 | 5 | – |

More lines, in order of falling IC50 (NCI-H2228 cell line; NCI-H2228, 96 h), values ahead:

| IC50 (NCI-H2228 cell line; NCI-H2228, 96 h) [nM] | IC50 (Wild Type ALK kinase) [nM] | Structure (SMILES) | IC50 (NCI-H2228 cell line; 96 h) [nM] |
| --- | --- | --- | --- |
| 115 | 2 | CC(C)S(=O)(=O)c1nn(C)cc1Nc1nc(Nc2cc(Cl)c(C3CCNCC3)cc2OC2CC2)ncc1Cl [Final product 22] | – |
| 111 | 8 | CC(C)S(=O)(=O)c1nn(C)cc1Nc1nc(Nc2ccc(C3CCN(S(C)(=O)=O)C3)cc2OC2CC2)ncc1Cl (centres unmarked) [Final product 172] | – |
| 107 | 4 | CC(C)S(=O)(=O)c1nn(C2CC2)cc1Nc1nc(Nc2cc(Cl)c(C3CCNCC3)cc2OC2CC2)ncc1Cl [Final product 23] | – |
| 103 | 4 | CC(C)S(=O)(=O)c1nn(C)cc1Nc1nc(Nc2cc(Cl)c(C3CCN(C)CC3)cc2OC2CC2)ncc1Cl [Final product 47] | – |
| 101 | 18 | CCN(CC)[C@H]1CC[C@H](c2cc(OC3CC3)c(Nc3ncc(Cl)c(Nc4cn(C)nc4S(=O)(=O)CC(C)C)n3)cc2C)CC1 [Final product 178] | – |
| 89 | 14 | Cc1cc(Nc2ncc(Cl)c(Nc3cn(C)nc3S(=O)(=O)CC(C)C)n2)c(OC2CC2)cc1[C@H]1CC[C@H](NC(C)C)CC1 [Final product 182] | – |
| 87 | 56 | Cc1cc(Nc2ncc(Cl)c(Nc3cn(C)nc3S(=O)(=O)C(C)C)n2)c(OC2CC2)cc1C1CCN(C(=O)C(C)(C)C)CC1 [Final product 164, 1-pivaloyl-4-(4-(5-chloro-4-(3-(isopropylsulfonyl)-1-methyl-1H-pyrazol-4-amino)pyrimidin-2-amine)-5-cyclopropoxy-2-methylphenyl)piperidine] | – |
| 76 | 7 | CC(=O)N1CCN([C@H]2CC[C@H](c3cc(OC4CC4)c(Nc4ncc(Cl)c(Nc5cn(C)nc5S(=O)(=O)C(C)C)n4)cc3C)CC2)CC1 [Final product 204] | – |
| 76 | 4 | Cc1cc(Nc2ncc(Cl)c(Nc3cn(C)nc3S(=O)(=O)C(C)C)n2)c(OC2CC2)cc1[C@H]1CC[C@@H](N(C)C)CC1 [Final product 189] | – |
| 60 | 4 | Cc1cc(Nc2ncc(Cl)c(Nc3cn(C)nc3S(=O)(=O)C(C)C)n2)c(OC2CCC2)cc1C1CCN(CCO)CC1 [Final product 138] | – |
| 48 | 3 | CC(C)S(=O)(=O)c1nn(C)cc1Nc1nc(Nc2ccc(C3CCNC3)cc2OC2CC2)ncc1Cl (centres unmarked) [Final product 15] | – |
| 43 | 9 | Cc1cc(Nc2ncc(Cl)c(Nc3cn(C)nc3S(=O)(=O)C(C)C)n2)c(OC2CC2)cc1C1CCN(C=O)CC1 [Final product 159, 4-(4-(5-chloro-4-(3-(isopropylsulfonyl)-1-methyl-1H-pyrazol-4-amino)pyrimidin-2-amino)-5-cyclopropoxy-2-methylphenyl)piperidin-1-formaldehyde] | – |
| 34 | 19 | Cc1cc(Nc2ncc(Cl)c(Nc3cn(C)nc3S(=O)(=O)C(C)C)n2)c(OC2CC2)cc1C1CCN(C(=O)C2CC2)CC1 [Final product 162, 1-cyclopropylformyl-4-(4-(5-chloro-4-(3-(isopropylsulfonyl)-1-methyl-1H-pyrazol-4-amino)pyrimidin-2-amine)-5-cyclopropoxy-2-methylphenyl)piperidine] | – |
| 33 | 1 | CC(C)S(=O)(=O)c1nn(C)cc1Nc1nc(Nc2ccc(C3CCN(C)C3)cc2OC2CC2)ncc1Cl (centres unmarked) [Final product 41] | – |
| 29 | 1 | CC(C)S(=O)(=O)c1nn(C2CC2)cc1Nc1nc(Nc2ccc(C3CCN(C)CC3)cc2OC2CC2)ncc1Cl [Final product 42] | – |
